Test results as given in publication PMC12234328, “A naphthalimide derivative exerts potent antiplatelet and antithrombotic activities without a bleeding tendency” (Frontiers in Pharmacology, 2025).
Where two headings read alike, the source gives them in different places.

What was measured:
[1] = biological target: T1, recombinant human GPVI (Homo sapiens, UniProt Q9HCN6); experiment: Surface plasmon resonance binding assay (OpenSPR); details: his-tagged recombinant GPVI on NTA chip, compound at 0.1 and 1 μM; read-out: KD (equilibrium dissociation constant)
T1 sequence (Q9HCN6 21-267 limits assumed): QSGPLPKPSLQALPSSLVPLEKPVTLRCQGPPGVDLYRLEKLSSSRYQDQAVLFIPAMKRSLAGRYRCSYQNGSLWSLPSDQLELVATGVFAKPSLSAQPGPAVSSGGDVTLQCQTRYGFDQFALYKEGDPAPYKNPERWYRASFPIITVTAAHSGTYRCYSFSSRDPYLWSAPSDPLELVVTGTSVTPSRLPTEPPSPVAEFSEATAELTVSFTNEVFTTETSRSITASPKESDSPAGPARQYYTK
Method: Surface plasmon resonance (SPR) analysis was performed using an OpenSPR instrument (Nicoya, Kitchener, Canada). A nitrilotriacetic acid (NTA) sensor chip was installed in the OpenSPR instrument. Running buffer (phosphate-buffered saline) was pumped at the maximum flow rate, and 80% isopropanol was injected to remove any bubbles. Subsequently, 200 μL of a 200 mM imidazole solution was injected to prime the sensor surface. After rinsing the chip with running buffer, 200 μL of a 40 mM NiCl2 solution was used to activate the NTA chip. After 5 min of interaction time, his-tagged recombinant GPVI proteins were bound to the NTA chip by perfusing the GPVI protein solution at a flow rate of 20 μL/min. Solutions of compound 5 or compound 6 (0.1 and 1 μM) were then injected. The equilibrium dissociation constant (KD) was determined using the OpenSPR system (Nicoya).
An SPR binding assay was performed. First, recombinant human GPVI was coated on the NTA sensor chip. Solutions of compound 5 and compound 6 (0.1 and 1 μM) were then perfused on the chip, and the KD was determined using the OpenSPR system (Nicoya Lifesciences).
FIGURE 7 Direct binding of compound 6 on GPVI. […] Equilibrium dissociation constant (KD) were determined using the OpenSPR system. […]

[2] = tested on: human platelet suspensions stimulated with collagen; parameters: method as in Shih et al., 2021; details: human platelets; ref Shih et al., 2021; read-out: IC50, collagen-induced platelet aggregation; cited from earlier work
[3] = tested on: human platelet suspensions stimulated with thrombin; parameters: method as in Shih et al., 2021; details: high concentrations; ref Shih et al., 2021; cited from earlier work
[4] = tested on: human platelet suspensions stimulated with U46619; parameters: method as in Shih et al., 2021; details: high concentrations; ref Shih et al., 2021; cited from earlier work
[5] = tested on: thrombus formation in mesenteric venules; parameters: method as in Shih et al., 2021; details: mice, ref Shih et al., 2021, cited from earlier work
[6] = tested on: tail bleeding (hemostasis); parameters: method as in Shih et al., 2021; details: ref Shih et al., 2021; cited from earlier work
[7] = tested on: thrombus formation in mesenteric venules; experiment: Fluorescein sodium-mediated thrombus formation in mesenteric microvessels of mice; assay type: in vivo; details: 20 mg/kg i.v., positive control, n = 6, mean ± SEM
Method: Male ICR mice (weighing 20–25 g and aged 5–6 weeks) were purchased from BioLasco (Taipei, Taiwan). The animal use protocol for this project was approved by the Affidavit of Approval of Animal Use Protocol–Taipei Medical University (LAC-2020–0074). All animal experiments were conducted in accordance with the Guide for the Care and Use of Laboratory Animals, Eighth Edition (2011).
The mice were anesthetized with an oxygen–air mixture containing 3% isoflurane at a gas flow rate of 1.5–2 L/min. A bolus dose (bolus volume: 20 μL) of compound 6 (0.3 mg/kg, 0.6 mg/kg, or 1.2 mg/kg), DMSO (solvent control; 1.1 g/kg), or aspirin (20 mg/kg; positive control) was intravenously administered through the tail vein before the administering sodium fluorescein (15 mg/kg). The small intestinal segments were placed on a transparent culture dish, and the mesenteric vessels were observed under a microscope. Venules (20–30 μm) were selected and irradiated with light (wavelength <520 nm) to induce endothelial damage, causing thrombus formation and subsequent vessel occlusion. The time required to occlude a microvessel was recorded ([Lin et al., 2013]). A formula for dose translation based on the […] was used to calculate the appropriate dose for use in the mice ([Reagan-Shaw et al., 2008]). [Reagan-Shaw et al. (2008)] reported that the animal dose should not be extrapolated to a human equivalent dose (HED) by a simple conversion based on body weight. […] The formula for dose translation based on BSA is as follows: HED (mg/kg) = Animal dose (mg/kg) multiply by Animal Km/Human Km. Mouse Km is 3 and Human Km is 37.
FIGURE 3 Effects of compound 6 on thrombosis and hemostasis in mice. Mice were treated with compound 6 (0.3, 0.6, or 1.2 mg/kg), DMSO (solvent control), or aspirin (20 mg/kg; positive control) via intravenous route for 10 min. (A) The microthrombus formation (arrows) in mesenteric venules. Scale bar = 30 μm. […] Each point on the plot indicates a mouse (n = 6). Data (A,B) are presented as means ± SEM (n = 6). *p < 0.05 and ***p < 0.001 compared with the DMSO group.

## CN(C)CCN1C(=O)c2cccc3c(NCCNC(=O)c4ccccn4)ccc(c23)C1=O [compound 5]
[1]
  Kd: 0.3 µM
[2]
  IC50: 6.5 µM
[3]
  Effect on thrombin-induced platelet aggregation: can block
[4]
  Effect on U46619-induced platelet aggregation: can block
[5]; 1.2 mg/kg
  Thrombus formation: not
[5]; 2.3 mg/kg
  Thrombus formation: inhibits thrombus formation
[6]
  Bleeding tendency: demonstrated a bleeding tendency

## CC(=O)Oc1ccccc1C(=O)O [aspirin, reference compound]
[7]
  Occlusion time: 492.2 ± 31.9 s
